Assay results reported in US20240239790A1, “7-Morpholino-1,6-Naphthyridin-5-yl Derivatives and Pharmaceutical Compositions Thereof Useful as DNA-PK Inhibitor” (adMare Therapeutics Society, priority 2021, published 2024).
Where two headings read alike, the source gives them in different places.

Legend:
[1] = target: T1, DNA-PK phosphorylation at Serine 2056 (Homo sapiens, UniProt P78527); experiment: Cellular Assay for Inhibition of DNA-PK Phosphorylation at Serine 2056 in FaDu cells (sandwich ELISA, neocarzinostatin); format: cell-based; details: pSer2056 DNA-PK, Table 3
T1 construct: FaDu cells were purchased from ATCC; host or cells: FaDu
Summary of the method: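 pSer2056 and total DNA-PK were measured by sandwich ELISA in BCA-normalised FaDu lysates. Cells had 1 h compound exposure (0.3% DMSO), then 2 h with 1 μg/mL final neocarzinostatin. IC50 was fitted (variable slope) to % inhibition scaled against NCS-stimulated and DMSO-only controls.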

[2] = system: FaDu cell line; experiment: Prodrug Activation in Hypoxic Stirred Tumour Cell Suspensions; details: 10 μM, 4 hours
[3] = system: pH2AX induction in HCT116 ATM-/- multicellular tumour spheroids; experiment: Prodrug Radiation Sensitization in Multicellular Tumour Spheroids, inhibition of pH2AX induction following radiation; format: cell-based; details: Homo sapiens, HCT-116, 20 Gy
Summary of the method: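 Endpoint: pH2AX (ser 139) or pDNA-PK (ser 2056) in cryosections fixed 1 or 2 h after 20 Gy, comparing oxygenated outer with hypoxic inner layers. Spheroids of ~0.5 mm (HCT116, FaDu; ATM-deficient cells used) held at 20% or 5% O2, 37 °C, stirred. Prodrug range 3.5 nM–10 μM.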

[4] = 5% O2, inner layers, read-out: Prodrug 5% O2 Inner layers EC50
[5] = 5% O2, outer layers, read-out: Prodrug 5% O2 Outer layers EC50
[6] = 20% O2, outer layers, read-out: Prodrug 20% O2 Outer layers EC50

Compound	IC50 [1]	Fraction of prodrug converted to active form, Hypoxic 0.2% O2 [2]	Fraction of prodrug converted to active form, Oxic 5% O2 [2]	EC50 [3, 4]	EC50 [3, 5]	EC50 [3, 6]
CC(Oc1cnc2cc(N3CCOCC3)nc(O[C@H]3CC[C@@H](Nc4ncc(OCCN(C)C)cn4)CC3)c2c1)c1cnc([N+](=O)[O-])n1C (stereo partly drawn) [LFA2087, 5-[2-(dimethylamino)ethoxy]-N-[4-[[3-[1-(3-methyl-2-nitro-imidazol-4-yl)ethoxy]-7-morpholino-1,6-naphthyridin-5-yl]oxy]cyclohexyl]pyrimidin-2-amine]	1 to 10 µM	A (A is 0.15 to 1)	D (D is 0 to 0.02)	1 to 10 µM	1 to 10 µM	1 to 10 µM
Cn1c(COc2cnc3cc(N4CCOCC4)nc(O[C@H]4CC[C@@H](Nc5ncc(OCCN6CCOCC6)cn5)CC4)c3c2)cnc1[N+](=O)[O-] [LFA2069, N-[4-[[3-[(3-methyl-2-nitro-imidazol-4-yl)methoxy]-7-morpholino-1,6-naphthyridin-5-yl]oxy]cyclohexyl]-5-(2-morpholinoethoxy)pyrimidin-2-amine]	10 to 30 µM	A (A is 0.15 to 1)	C (C is 0.02 to 0.05)	0.01 to 0.5 µM	1 to 10 µM	1 to 10 µM
CC(NS(=O)(=O)c1cnc2cc(N3CCOCC3)nc(O[C@H]3CC[C@@H](Nc4ncc(C(F)(F)F)cn4)CC3)c2c1)c1cnc([N+](=O)[O-])n1C (stereo partly drawn) [LFA2092, N-[1-(3-methyl-2-nitro-imidazol-4-yl)ethyl]-7-morpholino-5-[4-[[5-(trifluoromethyl)pyrimidin-2-yl]amino]cyclohexoxy]-1,6-naphthyridine-3-sulfonamide]	10 to 30 µM	D (D is 0 to 0.02)	D (D is 0 to 0.02)	10 to 100 µM	10 to 100 µM	1 to 10 µM

More lines, main results first:

IC50 [1]	Fraction of prodrug converted to active form, Hypoxic 0.2% O2 [2]	Fraction of prodrug converted to active form, Oxic 5% O2 [2]	Compound	EC50 [3, 4]	EC50 [3, 5]	EC50 [3, 6]
10 to 30 µM	B (B is 0.05 to 0.15)	D (D is 0 to 0.02)	CC(c1cnc([N+](=O)[O-])n1C)N(c1cnc2cc(N3CCOCC3)nc(O[C@H]3CC[C@@H](Nc4ncc(N5CCN(C)CC5)cn4)CC3)c2c1)S(C)(=O)=O (stereo partly drawn) [LFA2070, N-[1-(3-methyl-2-nitro-imidazol-4-yl)ethyl]-N-[5-[4-[[5-(4-methylpiperazin-1-yl)pyrimidin-2-yl]amino]cyclohexoxy]-7-morpholino-1,6-naphthyridin-3-yl]methanesulfonamide]	0.01 to 0.5 µM	1 to 10 µM	10 to 100 µM
10 to 30 µM	B (B is 0.05 to 0.15)	C (C is 0.02 to 0.05)	COc1cccnc1N[C@H]1CC[C@@H](Oc2nc(N3CCOCC3)cc3ncc(N(Cc4cnc([N+](=O)[O-])n4C)S(C)(=O)=O)cc23)CC1 [LFA2009, N-[5-[4-[(3-methoxy-2-pyridyl)amino]cyclohexoxy]-7-morpholino-1,6-naphthyridin-3-yl]-N-[(3-methyl-2-nitro-imidazol-4-yl)methyl]methanesulfonamide]	1 to 10 µM	1 to 10 µM	1 to 10 µM
10 to 30 µM	B (B is 0.05 to 0.15)	D (D is 0 to 0.02)	CC(c1cnc([N+](=O)[O-])n1C)N(c1cnc2cc(N3CCOCC3)nc(OC3CCC(Nc4ncc(N5CCN(CC(F)F)CC5)cn4)CC3)c2c1)S(C)(=O)=O (stereo not drawn) [LFA2047, N-[5-[4-[[5-[4-(2,2-difluoroethyl)piperazin-1-yl]pyrimidin-2-yl]amino]cyclohexoxy]-7-morpholino-1,6-naphthyridin-3-yl]-N-[1-(3-methyl-2-nitro-imidazol-4-yl)ethyl]methanesulfonamide]	0.01 to 0.5 µM	1 to 10 µM	1 to 10 µM
